Measured values: PMC11727121, “Intrinsic PD‐L1 Degradation Induced by a Novel Self‐Assembling Hexapeptide for Enhanced Cancer Immunotherapy” (Advanced Science, 2024)
Square brackets hold non-standard residues; d marks the D form. Ends that are not written are not given here. Peptide text beside a SMILES is read from it. Met(O) = CS(=O)CC[C@H](N)C(=O)O

Tests used:
MC38 cells = test: MTT cytotoxicity assay, MC38 cells; assay type: cell-based, mouse; details: 24 h
Protocol: (§1) In Vitro Cell Cytotoxicity and Cell Apoptosis Assay
(§2) The cytotoxicity of KFM and KFMo were assessed as follows. Briefly, 4T1, MC38 and HUVEC cells were seeded on 96-well plate (5000 cells per well) overnight.
(§3) The cells were incubated with 100 µL fresh DMEM containing with various concentration of for 24 h, respectively. Moreover, the 4T1 and MC38 tumor cells co- […]
(§4) cells viability was evaluated using the MTT assay.
(§5) Subsequently, the cells at a density of 1 × 104 were cultivated into 96-well plate and then cultured with or without H2O2 (5 µM or 100 µM) for 24 h. The cells viability was evaluated using the MTT assay. […]

HUVEC cells = test: MTT cytotoxicity assay, HUVEC cells; assay type: cell-based, Human; details: 24 h
Protocol: as §1, §2, §3, §4, §5

4T1 cells [1] = test: MTT cytotoxicity assay, 4T1 cells; assay type: cell-based, mouse; details: 24 h
Protocol: as §1, §2, §3, §4, §5

PD-L1 [2] = test: Western blot analysis of PD-L1 expression in MC38 cells; assay type: cell-based, mouse; details: compared to PBS control
Protocol: (§6) In vitro Immunogenic Cell Death Assay […]
(§7) presence of DAMPs within indicated treatments were examined by calreticulin (CRT) and high mobility group box 1 protein (HMGB1) expression level. Firstly, 5 × 104 […]
(§8) And then, fixed with 4% formaldehyde for 30 min at room temperature, and washed twice with PBS. A blocking solution of 10% goat serum was added to the wells and incubated for 50 min to minimize nonspecific antibody adsorption. The cells were treated with primary antibodies overnight at 4 ℃, subsequently, stained with FITC -labeled secondary antibodies for 2 h, followed by mounting solution with DAPI, images captured by fluorescence microscopy (Leica DMI3000B). The fluorescence intensity was analyzed using Image J.
(§9) Western Blotting Analysis
(§10) Cellular proteins were extracted with the lysis buffer containing 8 M urea, 0.05 M Tris-HCl (pH 7.5), 1% β-Mercaptoethanol, 1% protease inhibitor, and 1% phosphatase inhibitor, while tumor protein was extracted with the medium RIPA lysis buffer containing 1% protease inhibitor and 1% phosphatase inhibitors by 1-minute ultrasonication, then kept on ice for 30 minutes and microcentrifugated at 12,000 g for 15 minutes at 4 ℃ to remove debris. Immunoblotting was performed using 30 µg and 50 μg of protein lysates from cells and tumors, respectively . […]

PD-L1 [3] = test: Western blot analysis of PD-L1 expression in 4T1 cells; assay type: cell-based, mouse
Protocol: as §6, §7, §8, §9, §10

MC38 tumor = test: In vivo antitumor study in MC38 tumor-bearing mice; details: MC38 model, peritumoral, MTX 1.5 mg/kg, MET 69.5 mg/kg equivalents, day 0 and 3, n = 5
4T1 cells [4] = test: Cell apoptosis assay by flow cytometry (Annexin V / PI); assay type: cell-based, mouse; details: 24 h, 5 µM MTX or equivalent, absence of H2O2
Protocol: In Vitro Cell Cytotoxicity and Cell Apoptosis Assay […]
plates at a density of 2 × 10^5 cells/well.
Following incubation, all cells were harvested and
stained with Annexin V and propidium iodide (PI) according to the manufacturer's
protocol. Apoptosis was immediately analyzed using flow cytometry.

4T1 cells [5] = test: In vitro immunogenic cell death assay (CRT, HMGB1); assay type: cell-based, mouse; details: 12 h, fluorescence staining
Protocol: as §6, §7, §8, §9, §10

C[S+]([O-])CC[C@H](NC(=O)[C@H](Cc1ccccc1)NC(=O)[C@H](CC[S+](C)[O-])NC(=O)[C@H](Cc1ccccc1)NC(=O)[C@@H](N)CCCCN)C(=O)N[C@@H](CCCCN)C(N)=O (stereo partly shown) [KFM°] (H-KF[Met(O)]F[Met(O)]K-NH2)
cytotoxicity of peptide (MTT) (MC38 cells): negligible cytotoxicity
cytotoxicity of peptide (MTT) (HUVEC cells): negligible cytotoxicity
cytotoxicity of peptide (MTT) (4T1 cells [1]): negligible cytotoxicity

CN(C)C(=N)N=C(N)N [MET, metformin]
PD-L1 expression (Western blot), in words (PD-L1 [2]): reduced
PD-L1 expression (Western blot), in words (PD-L1 [3]): reduced

O=C1c2c(O)ccc(O)c2C(=O)c2c(NCCNCCO)ccc(NCCNCCO)c21 [MTX, mitoxantrone]
cytotoxicity of MTX formulations (MTT) (MC38 cells; without H2O2): dose‐dependent cytotoxicity
tumor growth (MC38 tumor): partially slowed tumor growth
cytotoxicity of MTX formulations (MTT) (4T1 cells [1]; without H2O2): dose‐dependent cytotoxicity
percentage of apoptotic cells (4T1 cells [4]): 61.3%
CRT expression compared to PBS control, in words (4T1 cells [5]): marked increase

KFMFMK-NH2 [KFM, Lys‐Phe‐Met‐Phe‐Met‐Lys]
cytotoxicity of peptide (MTT) (MC38 cells): negligible cytotoxicity
cytotoxicity of peptide (MTT) (HUVEC cells): negligible cytotoxicity
cytotoxicity of peptide (MTT) (4T1 cells [1]): negligible cytotoxicity
